Values of other authors, collected in patent US8877755B2, “Dopamine-agonist combination therapy for improving sleep quality” (priority 2004, dated 2014).
Where a name gives a salt, the structure may show the parent alone. Read-outs that look alike come from different tables or passages of the source.

Tests used:
[1] = in vivo
[2] = in vivo; remark: listed apart in the source
[3] = not given; remark: listed apart in the source
[4] = L-dopa 100 mg with carbidopa 10 mg, in most cases
[5] = following oral administration
[6] = not given; remark: listed apart in the source
[7] = primates, multiple doses for up to four days
[8] = mice; behavioral depression score <40
[9] = biological target: GABA:2-oxo-glutarate aminotransferase (Homo sapiens, UniProt P80404); conditions: at 10^−3 M
Sequence of GABA:2-oxo-glutarate aminotransferase (P80404 29-500): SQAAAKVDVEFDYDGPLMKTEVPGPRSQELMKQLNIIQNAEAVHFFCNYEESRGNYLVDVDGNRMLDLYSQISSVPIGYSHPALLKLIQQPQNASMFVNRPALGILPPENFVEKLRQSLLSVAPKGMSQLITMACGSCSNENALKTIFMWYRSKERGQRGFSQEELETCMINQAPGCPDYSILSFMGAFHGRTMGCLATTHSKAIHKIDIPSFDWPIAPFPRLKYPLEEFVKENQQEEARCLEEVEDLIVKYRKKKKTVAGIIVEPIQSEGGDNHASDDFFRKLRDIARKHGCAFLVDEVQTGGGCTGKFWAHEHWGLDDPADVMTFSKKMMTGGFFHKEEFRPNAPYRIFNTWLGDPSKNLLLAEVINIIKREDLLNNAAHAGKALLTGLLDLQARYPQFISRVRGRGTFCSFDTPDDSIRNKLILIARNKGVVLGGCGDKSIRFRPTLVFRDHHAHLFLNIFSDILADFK

GABA uptake system = system: GABA uptake system; design: dose or concentration left out as unconfirmed
[10] = system: L-glutamate 1-carboxylase; conditions: at 10^−3 M
[11] = not given; remark: listed apart in the source
[12] = in vivo; remark: listed apart in the source

Compound: Oc1ccc(C2CNCCc3c2cc(O)c(O)c3Cl)cc1 (racemic) [racemic fenoldopam, 6-chloro-2,3,4,5-tetrahydro-1-(4-hydroxyphenyl)-1H-3-benzazepine-7,8-diol]
- average clearance (CL) [1]: 2.6 L/min
- half-life (t1/2) [1]: 4.6 min

Compound: C=CCN1C[C@H](C(=O)N(CCCN(C)C)C(=O)NCC)C[C@@H]2c3cccc4[nH]cc(c34)C[C@H]21 [Cabergoline, 1-[(6-allylergolin-8β-yl)-carbonyl]-1-[3-(dimethylamino)propyl]-3-ethylurea]
- half life [2]: ≤ 65 h

Compound: CC(=O)N(C)c1cccc(-c2ccnc3c(C(=O)c4cccs4)cnn23)c1 [Indiplon, N-methyl-N-(3-{3-[2-thienylcarbonyl]-pyrazolo-[1,5-a]-pyrimidin-7-yl}-phenyl)acetamide]
- half-life in vivo: approximately 1.3 hours
- resulting pH of water solution ([3]; at 20-30 μg/ml in water): approximately 8.0

Compound: N[C@@H](Cc1ccc(O)c(O)c1)C(=O)O [L-dopa]
- effect on RLS [4]: completely suppresses RLS

Compound: CCN(C(C)=O)c1cccc(-c2ccnc3c(C#N)cnn23)c1 [Zaleplon, N-[3-(3-cyanopyrazolo[1,5-a]pyrimidin-7-yl)phenyl]-N-ethylacetamide]
- time to peak plasma concentration [5]: 1 h

Compound: CN1CCc2cccc3c2[C@H]1Cc1ccc(O)c(O)c1-3 [apomorphine HCl]
- tolerated dose ([6]; single bolus subcutaneous injection, mammals): up to 13 mg/kg
- doses without major adverse effects [7]: 0.1 to 0.4 mg/kg

Compound: CN1CCc2cccc3c2[C@H]1Cc1ccc(O)c(O)c1-3 [apomorphine, (R)-5,6,6a,7-tetrahydro-6-methyl-4H-dibenzo-[de,g]quinoline-10,11-diol]
- tolerated dose, continuous infusion ([6]; continuous infusion for 14 days): 420 µg/kg/h
- minimally lethal dose, continuous infusion ([6]; over the course of the 14 day study): 1,500 μg/kg/hr

Compound: CN1C(=O)CN=C(c2ccccc2)c2cc(Cl)ccc21 [diazepam]
- ED100 [8]: 50 mg/kg

Compound: Oc1noc2c1CCNC2 [gaboxadol, 4,5,6,7-tetrahydroisoxazolo[5,4-c]pyridin-3-ol]
- interaction with GABA:2-oxo-glutarate aminotransferase [9]: did not interact
- interaction with GABA uptake system (GABA uptake system): did not interact
- interaction with L-glutamate 1-carboxylase [10]: did not interact

Compound: CCC1(c2ccccc2)CCC(=O)NC1=O (centres unmarked) [glutethimide]
- ED100 [8]: 300 mg/kg

Compound: O=C(CCCN1CCC(O)(c2ccc(Cl)cc2)CC1)c1ccc(F)cc1 [haloperidol]
- ED100 [8]: 10 mg/kg

Compound: CCCC(C)(COC(N)=O)COC(N)=O [meprobamate]
- ED100 [8]: 300 mg/kg

Compound: CN1C[C@@H](NS(=O)(=O)N(C)C)C[C@@H]2c3cccc4c3c(cn4C)C[C@H]21 [mesulergine, N′-(1,6-dimethylergolin-8α-yl)-N,N-dimethylsulfamide]
- half-life in vivo [11]: approximately 2 hr
- solubility in water ([3]; hydrochloride salt): soluble in water

Compound: CCCC(C)C1(CC)C(=O)NC(=O)NC1=O (centres unmarked) [pentobarbital]
- ED100 [8]: 100 mg/kg

Compound: COC(=O)[C@H]1[C@H]2C[C@@H]3c4[nH]c5cc(OC)ccc5c4CCN3C[C@H]2C[C@@H](OC(=O)c2cc(OC)c(OC)c(OC)c2)[C@@H]1OC [reserpine]
- ED100 [8]: 50 mg/kg

Compound: Cc1ccc(-c2nc3ccc(C)cn3c2CC(=O)N(C)C)cc1 [zolpidem, N,N,6-trimethyl-2-(4-methylphenyl)-imidazo[1,2-s]pyridine-3-acetamide]
- elimination half-life (mean) [12]: 2.4 h
